# Counter-ions that a name gives are not always drawn.
# Experiment: Storage stability against transformation to other crystalline forms
# Format: physicochemical
# Method: Fexofenadine hydrochloride Form XVI is substantially stable during storage. Fexofenadine hydrochloride Form XVI is stable against transformation to other crystalline forms upon storage at relative humidity of up to about 100% for at least about 1 week, and storage at about 40° C. and about 75% relative humidity for at least about 6 months. The conversion is preferably less than about 5%, more preferably less than about 2% by weight.
# In another aspect, the present invention provides for processes for preparation of fexofenadine hydrochloride Form XVI, which allow preparing fexofenadine HCl form XVI substantially free of other polymorphic forms of fexofenadine HCl, including amorphous form. As used herein, “substantially free” refers to less than about 5% on a weight basis, preferably less than about 2%, weight of polymorphic forms other than Form XVI compared to the weight of all the polymorphic forms, including Form XVI. A suitable method for determining the presence of other polymorphic forms is with X-Ray Powder diffraction.
compound,measurement,setting,value
"CC(C)(C(=O)O)c1ccc(C(O)CCCN2CCC(C(O)(c3ccccc3)c3ccccc3)CC2)cc1 (stereo not drawn) [Fexofenadine hydrochloride Form XVI, 4-[4-[4-(hydroxydiphenylmethyl)-1-piperidinyl]-1-hydroxybutyl]-α,α-dimethylbenzeneacetic acid]",time stable against transformation to other crystalline forms upon storage,storage at about 40° C. and about 75% relative humidity,at least 6 months
same,time stable against transformation to other crystalline forms upon storage,storage at relative humidity of up to about 100%,at least 1 week
